Reference: PMC3743159 (Chemmedchem, 2013)

Biological target: T1, STS (Homo sapiens, UniProt P08842)
T1 sequence (P08842 22-583): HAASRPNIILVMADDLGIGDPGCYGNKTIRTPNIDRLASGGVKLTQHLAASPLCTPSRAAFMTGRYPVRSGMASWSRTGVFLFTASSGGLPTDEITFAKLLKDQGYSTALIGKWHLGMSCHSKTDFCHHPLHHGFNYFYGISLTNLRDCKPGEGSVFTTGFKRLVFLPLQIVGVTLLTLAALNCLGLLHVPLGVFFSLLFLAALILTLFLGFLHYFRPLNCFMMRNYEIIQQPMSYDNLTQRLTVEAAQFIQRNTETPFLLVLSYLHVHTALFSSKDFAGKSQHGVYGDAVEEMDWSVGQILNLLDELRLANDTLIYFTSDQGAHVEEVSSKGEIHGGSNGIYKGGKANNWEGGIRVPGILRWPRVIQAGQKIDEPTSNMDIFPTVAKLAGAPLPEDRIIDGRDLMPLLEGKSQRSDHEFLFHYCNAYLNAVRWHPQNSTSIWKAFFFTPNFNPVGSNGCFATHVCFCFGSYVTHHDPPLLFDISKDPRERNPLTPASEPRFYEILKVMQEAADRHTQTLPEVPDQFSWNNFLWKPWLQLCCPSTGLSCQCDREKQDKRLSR
Test: In vitro inhibition of STS
Type: cell-based
Conditions: STS IC50, JEG-3 cell preparation; sulfamates

IC50 | SMILES
52 ± 6.6 nM | NS(=O)(=O)Oc1ccc(CN(c2ccc3c(c2)OC(F)(F)O3)n2cnnc2)cc1 [Compound 22, 4-{[(2,2-Difluorobenzo[d][1,3]dioxol-5-yl)(4H-1,2,4-triazol-4-yl)amino]methyl}phenyl sulfamate]
45 ± 5 nM | NS(=O)(=O)Oc1ccc(CN(c2cc(F)cc(F)c2)n2cnnc2)cc1 [Compound 21, 4-{[(3,5-Difluorophenyl)(4H-1,2,4-triazol-4-yl)amino]methyl}phenyl sulfamate]
44 ± 6 nM | N#Cc1ccc(N(Cc2c(Cl)cc(OS(N)(=O)=O)cc2Cl)n2cnnc2)cc1 [Compound 18, 3,5-Dichloro-4-{[(4-cyanophenyl)(4H-1,2,4-triazol-4-yl)amino]methyl}phenyl sulfamate]
1560 ± 116 nM | NS(=O)(=O)Oc1ccc(CN(c2ccccc2)n2cnnc2)cc1 [Compound 20, 4-{[Phenyl(4H-1,2,4-triazol-4-yl)amino]methyl}phenyl sulfamate]
29 ± 2 nM | N#Cc1ccc(N(Cc2ccc(OS(N)(=O)=O)cc2Br)n2cnnc2)cc1 [Compound 19, 3-Bromo-4-{[(4-cyanophenyl)(4H-1,2,4-triazol-4-yl)amino]methyl}phenyl sulfamate]

The remaining lines, values behind:

SMILES | IC50
N#Cc1ccc(N(Cc2ccc(OS(N)(=O)=O)cc2Cl)n2cnnc2)cc1 [Compound 17, 3-Chloro-4-{[(4-cyanophenyl)(4H-1,2,4-triazol-4-yl)amino]methyl}phenyl sulfamate] | 40 ± 5 nM
N#Cc1ccc(N(Cc2ccc(OS(N)(=O)=O)c(F)c2F)n2cnnc2)cc1 [Compound 13, 4-{[(4-Cyanophenyl)(4H-1,2,4-triazol-4-yl)amino]methyl}-2,3-difluorophenyl sulfamate] | 48 ± 2 nM
N#Cc1ccc(N(Cc2ccc(OS(N)(=O)=O)c(C(F)F)c2)n2cnnc2)cc1 [Compound 15, 4-{[(4-Cyanophenyl)(4H-1,2,4-triazol-4-yl)amino]methyl}-2-(difluoromethyl)phenyl sulfamate] | 60 ± 2.4 nM
N#Cc1ccc(N(Cc2c(F)cc(OS(N)(=O)=O)cc2F)n2cnnc2)cc1 [Compound 12, 4-{[(4-Cyanophenyl)(4H-1,2,4-triazol-4-yl)amino]methyl}-3,5-difluorophenyl sulfamate] | 39 ± 1 nM
N#Cc1ccc(N(Cc2ccc(OS(N)(=O)=O)cc2F)n2cnnc2)cc1 [Compound 11, 4-{[(4-Cyanophenyl)(4H-1,2,4-triazol-4-yl)amino]methyl}-3-fluorophenyl sulfamate] | 21 ± 3.5 nM

Tested on: not given
Test: not given
Conditions: not given

melting point | SMILES
182 to 185 °C | Oc1ccc(CN(c2ccc3c(c2)OC(F)(F)O3)n2cnnc2)cc1 [Compound 22 e, 4-{[(2,2-Difluorobenzo[1,3]dioxol-5-yl)-[1,2,4]triazol-4-ylamino]methyl}phenol]

Tested on: STS
Test: not given
Conditions: read-out: STS IC50; placental microsome preparation; cited from earlier work

SMILES | IC50
C[C@]12CC[C@@H]3c4cc(C(F)F)c(OS(N)(=O)=O)cc4CC[C@H]3[C@@H]1CCC2=O [2-difluoromethyloestrone 3-O-sulfamate] | 0.1 nM
